# According to patent US12502403B2, “Tafoxiparin for the treatment of preeclampsia” (DILAFOR AB, priority 2020, dated 2025):
# Assays:
# [1] = test system: subcutaneous arteries; assay: Myograph: endothelial function (relaxation to substance P after potassium pre-contraction); type: cell-based, human
# Experimental: In some experiments the endothelial function was tested by pre-contraction the vessels with 30 mM potassium buffer, giving a stable tone and endothelium function evaluated by exposure to substance P (10^−6 or 10^−5 M).
# [2] = test system: subcutaneous arteries; assay: Myograph: endothelin 1 (ET-1)-induced contraction of subcutaneous artery segments after pre-treatment and placental vesicles; type: cell-based, human; conditions: for contraction to ET-1 / AUC / AUC/AUC (PE) % / % contractile change: Example 5, 10 μg/ml pre-incubation then PE vesicles; for AUC / AUC/AUC (PE) % / % contractile change: ET-1, pooled from five patients; for % contractile change: vs PE; for reduction of contraction induced with ET-1: vs PE vesicles only; for Emax [%] ET-1: relative to 60 mM potassium contraction; for logEC50 ET-1: EC50 of agonist ET-1; for effect on ET-1 mediated contraction with control P vesicles: vs vesicles only
# From the text: (§1) In a myograph model, arteries from subcutaneous tissue of women undergoing Caesarian section were used. The contractile effect of arteries comprising vesicles derived from placentas from pre-eclamptic women was compared with the contractile effect of arteries comprising vesicles derived from placentas from non-preeclamptic women. […] The Low Molecular Weight Heparin (LMWH) tinzaparin (Innohep®, Leo Pharma Denmark) was used as a comparator.
# (§2) Subcutaneous arteries were removed from the subcutaneous fat of the abdomen during Caesarean section and immediately put in cold DMEM-medium. Arteries were dissected in cold Na-Krebs buffer at a pH of 7.3-7.4 and cut into ring segments with a length of 1-2 mm as previously shown. The sections were mounted on two 40 μm-diameter wires and connected to a device sensitive to vascular tension. The stretching force property of the arteries were recorded with Mulvany-Halpern myographs. The mounted arterial segments were immersed into temperature-controlled (+37° C.) tissue baths containing bicarbonate-based buffer solution gassed with carbogen to obtain a pH of 7.3-7.4. Each segment was stretched to 90% of the normal internal circumference, which is the size each segment would have in a transmural pressure of 100 mm Hg. The contractile capacity of each artery segment was checked by exposure to 60 mM KCl buffer solution twice or three times to study viability. After each the bath was washed and the tone returned to baseline. When stable, different molecules or receptor agonists are added to the baths in concentration-dependent manner to observe the vasomotor responses of the vessels.
# (§3) The artery segments were studied by exposure to angiotensin II or endothelin 1 in cumulative concentrations of the agonists. […] In some experiments, 30 minutes after adding vesicles to the tissue baths concentration-contraction curves were obtained by cumulative application of angiotensin II (angiotensin 1 and 2 receptor agonist, concentration range 10^−12 to 10^−6 M). After washing and the tension returning to base line, agonists are added. After washing and the tension returning to base line endothelin 1 was added (endothelin A and B receptor agonist, concentration range 10^−11 to 10^−7 M).
# (§4) After 30 minutes, non-preeclampsia vesicles as control (P) or pre-eclampsia (PE) vesicles were added at a concentration of 200 μg (protein concentration 40 μg/mL).
# (§5) 30 minutes after adding vesicles to the tissue baths, concentration-contraction curves were obtained by cumulative application of angiotensin II (A9525 Sigma-Aldrich Angiotensin II human, powder CAS Number 4474-91-3 dissolved in sodium chloride to a concentration of 10^−3 M) and used in the concentration range 10^−12 to 10^−6 M. After wash-out and the tension had returned to base line, ET-1 (ALX-155-001, Enzo Life Sciences) was added and recorded (endothelin A and B receptor agonist, concentration range 10^−11 to 10^−7 M).
# [3] = test system: subcutaneous arteries; assay: Myograph: angiotensin II-induced contraction of subcutaneous artery segments after pre-treatment and placental vesicles; conditions: for contractile effect of AngII in the presence of PE: 10 μg/ml pre-incubation; for AUC / AUC/AUC (PE) % / % contractile change: AngII; for % contractile change: vs PE; for Emax [%] AngII: relative to 60 mM potassium contraction; for logEC50 AngII: EC50 of agonist AngII; for effect on Ang II mediated contraction with control P vesicles: vs vesicles only;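 as to all read-outs here: wire myograph tension of human abdominal subcutaneous artery rings from Caesarean deliveries at 37 °C, 30 min pre-treatment, vesicles 30 min, then cumulative angiotensin II 10^−12 to 10^−6 M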
# From the text: as §1, §2, §3, §4, §5
# [4] = patient 14, drug only, no vesicles
# [5] = patient 14, pre-treatment then P vesicles
# [6] = patient 14, pre-treatment then PE vesicles
# [7] = patient 14, 10 μg/ml before PE-vesicles
# [8] = patient 14, 10 μg/ml pre-treatment then PE vesicles
# [9] = patient 14, control (P) vesicles
# [10] = Example 3, 10 μg/ml pre-incubation then PE vesicles, pooled from four patients
# [11] = Example 4, 100 μg/ml pre-incubation then PE vesicles
# [12] = Example 4, 100 μg/ml pre-incubation then PE vesicles, pooled from five patients
# [13] = patient 14, 10 μg/ml before PE-vesicles, vs PE vesicles only
# [14] = patient 13, drug only, no vesicles
# [15] = patient 13, 10 μg/ml pre-treatment then PE vesicles
# [16] = patient 13, pre-treatment then P vesicles
# [17] = patient 13, control (P) vesicles
substance,measurement,setting,value
tafoxiparin,Endothelial function [%],[1]; [4],85%
same,Endothelial function [%],[1]; [5],22%
same,Endothelial function [%],[1]; [6],67%
same,contraction to ET-1,[2],significantly lower contraction
same,AUC,[2],193.1
same,AUC/AUC (PE) %,[2],61.8%
same,% contractile change,[2],−38%
same,reduction of contraction induced with ET-1,[2]; [7],56%
same,Emax [%] ET-1,[2]; [8],77%
same,logEC50 ET-1,[2]; [4],9.9
same,logEC50 ET-1,[2]; [5],7.7
same,logEC50 ET-1,[2]; [6],6.9
same,effect on ET-1 mediated contraction with control P vesicles,[2]; [9],little or no effect
same,Emax [%] ET-1,[2]; [4],180%
same,Emax [%] ET-1,[2]; [5],105%
same,contractile effect of AngII in the presence of PE,[3]; Example 3,affect the contractile effect of AngII
same,AUC,[3]; [10],160.5
same,AUC/AUC (PE) %,[3]; [10],68.5%
same,% contractile change,[3]; [10],−31.5%
same,AngII induced contraction,[3]; [11],significantly decreased
same,AUC,[3]; [12],306.5
same,AUC/AUC (PE) %,[3]; [12],70.8%
same,% contractile change,[3]; [12],−29%
same,reduction of contraction induced with angiotensin II,[3]; [13],79%
same,Emax [%] AngII,[3]; [8],27%
same,logEC50 AngII,[3]; [4],10.2
same,logEC50 AngII,[3]; [5],9.8
same,logEC50 AngII,[3]; [6],9.4
same,effect on Ang II mediated contraction with control P vesicles,[3]; [9],little or no effect
same,Emax [%] AngII,[3]; [4],101%
same,Emax [%] AngII,[3]; [5],73%
tinzaparin,Endothelial function [%],[1]; [14],96%
same,Endothelial function [%],"[1]; patient 13, pre-treatment then PE vesicles",119.95%
same,Endothelial function [%],"[1]; patient 13, pre-treatment then non-preeclampsia (P) vesicles",69.11%
same,Endothelial function [%],[1]; [5],22%
same,Endothelial function [%],[1]; [6],1%
same,contraction to ET-1,[2],significantly lower contraction
same,AUC,[2],259.5
same,AUC/AUC (PE) %,[2],83.1%
same,% contractile change,[2],−17%
same,contraction induced with ET-1 (the Emax) compared with PE vesicles only,"[2]; patient 13, 10 μg/ml before PE-vesicles",the same
same,reduction of log EC50 (ET-1),"[2]; patient 13, 10 μg/ml before PE-vesicles, extrapolated",35%
same,Emax [%] ET-1,[2]; [15],143%
same,logEC50 ET-1,[2]; [14],8.5
same,logEC50 ET-1,[2]; [16],8.8
same,logEC50 ET-1,"[2]; patient 13, pre-treatment then PE vesicles (extrapolated)",5.7
same,effect on contraction in the presence of control vesicles (ET-1),[2]; [17],did not appear to have any reducing effect
same,Emax [%] ET-1,[2]; [14],144%
same,Emax [%] ET-1,[2]; [16],166%
same,reduction of contraction induced with ET-1,[2]; [7],15%
same,Emax [%] ET-1,[2]; [8],147%
same,logEC50 ET-1,[2]; [5],9.4
same,logEC50 ET-1,[2]; [6],9.9
same,effect on ET-1 mediated contraction with control P vesicles,[2]; [9],increased contraction
same,Emax [%] ET-1,[2]; [5],197%
same,contractile effect of AngII in the presence of PE,[3]; Example 3,affect the contractile response of AngII
same,AUC,[3]; [10],170.5
same,AUC/AUC (PE) %,[3]; [10],72.7%
same,% contractile change,[3]; [10],−27.3%
same,AngII induced contraction,[3]; [11],significantly decreased
same,AUC,[3]; [12],299.6
same,AUC/AUC (PE) %,[3]; [12],69.3%
same,% contractile change,[3]; [12],−31%
same,reduction of maximum contraction induced by angiotensin II,"[3]; patient 13, 10 μg/ml before PE-vesicles, vs PE vesicles only",23%
same,Emax [%] AngII,[3]; [15],75%
same,logEC50 AngII,[3]; [16],10.8
same,effect on contraction in the presence of control vesicles (AngII),[3]; [17],did not appear to have any reducing effect
same,Emax [%] AngII,[3]; [14],69%
same,Emax [%] AngII,"[3]; patient 13, pre-treatment then P (non-PE) vesicles",103%
same,reduction of contraction induced with angiotensin II,[3]; [13],14%
same,Emax [%] AngII,[3]; [8],109%
same,logEC50 AngII,[3]; [5],10.0
same,logEC50 AngII,[3]; [6],10.0
same,effect on Ang II mediated contraction with control P vesicles,[3]; [9],increased contraction
same,Emax [%] AngII,[3]; [5],135%
